One assay has as its target T1, human mPGES-1 (Homo sapiens, UniProt O14684).
T1 construct: host or cells: microsomes
T1 sequence (O14684 1-152): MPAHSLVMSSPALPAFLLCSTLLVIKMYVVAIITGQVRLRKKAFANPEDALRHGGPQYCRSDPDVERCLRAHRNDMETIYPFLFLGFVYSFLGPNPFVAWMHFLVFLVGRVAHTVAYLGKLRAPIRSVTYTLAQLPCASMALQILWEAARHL
In words: Microsomal prostaglandin E synthase biochemical assay. Particulars: microsomes containing human mPGES-1, PGH2 10.8 μM, GSH 2.5 mM, pH 6.8; average of at least n=2. On the procedure:
Compounds were tested as inhibitors of microsomal prostaglandin E synthase activity in microsomal prostaglandin E synthase assays and whole cell assays. These assays measure prostaglandin E2 (PGE2) synthesis, which is taken as a measure of prostaglandin E synthase activity. Microsomal prostaglandin E synthase biochemical assays used microsomal prostaglandin E synthase-1 in microsomal preparations. The source of the microsomes can be for example interleukin-1β-stimulated human A549 cells (which express human mPGES-1) or Sf9 cells transfected with plasmids encoding human mPGES-1 cDNA.
A solution of test compound was added to a diluted microsome preparation containing human mPGES-1 and pre-incubated for 15 minutes in potassium phosphate buffer pH 6.8 with cofactor glutathione (GSH). Corresponding solutions without test compound were used as positive controls, and corresponding solutions without test compound and without microsomes were used as negative controls. The enzymatic reaction was then started by addition of the substrate PGH2 in an organic solution (dry acetonitrile).
The typical reaction conditions of the enzymatic reaction were thus: Test compound: ranging from 60 μM to 0.002 μM, or zero in positive and negative controls; potassium phosphate buffer pH 6.8:50 mM; GSH: 2.5 mM; mPGES-1-containing microsomes: 2 μg/mL (sample and positive controls) or 0 μg/mL (negative control); PGH2: 10.8 μM; Acetonitrile: 7.7% (v/v); DMSO: 0.6% (v/v). The reaction was stopped after one minute by adding an acidic solution (pH 1.9) of ferric chloride and citrate (final concentrations 7 mM and 47 mM respectively), by which the PGH2 was sequestered (the PGH2 is reduced to mainly 12-hydroxy heptadecatrineoic acid (12-HHT) which is not detected by the subsequent PGE2 detection step). The resulting solution was then pH neutralized by addition of potassium phosphate buffer, prior to diluting an aliquot of the resulting solution in a weak potassium phosphate buffer (50 mM, pH 6.8) containing 0.2% BSA (w/v). [Adapted from Jacobsson et al., Proc. Natl. Acad. Sci. USA, 1999, vol. 96, pp. 7220-7225] The PGE2 formed was quantified by use of a commercial HTRF based kit (catalogue #62PG2PEC or #62P2APEC from Cisbio International). 100% activity was defined as the PGE2 production in positive controls subtracted by the PGE2 production in the negative controls. IC50 values were then determined using standard procedures.
The potency is expressed as IC50 and the value indicated is an average of at least n=2.

In assay [1] the test system is mPGES-1-dependent PGE2 production in human blood. In words: Whole blood assay (LPS-stimulated human blood, PGE2 production). The format is cell-based. Particulars: 0.1 μg/ml LPS, 16 hours at 37° C., PGE2 by HTRF, read-out: hWBA. From the text: The whole blood assay [described by Patrignani, P. et al, Journal of Pharmacology and Experimental Therapeutics, 1994, vol. 271, pp 1705-1712] was used as the whole cell assay for testing the compounds. Whole blood provides a protein and cell rich environment for the study of biochemical efficacy of anti-inflammatory compounds, such as prostaglandin synthase inhibitors. To study the inhibitory activities of these compounds, human blood was stimulated with lipopolysaccharide (LPS) for typically 16 hours to induce mPGES-1 expression, after which the concentration of produced PGE2 was measured by competitive-immuno assay (homogeneous time-resolved fluorescence, HTRF) as read out for effectiveness against mPGES-1-dependent PGE2 production.
Human blood collected from human volunteers in heparinized tubes was incubated with 100 μM acetyl salicylic acid, in order to inhibit the constitutively expressed cyclooxygenase (COX)-1/COX-2 enzymes, and then stimulated with 0.1 μg/ml LPS to induce the expression of enzymes along the COX-2 pathway, e.g. COX-2 and mPGES-1. 100 μL of this blood was added to the wells of a 384-well plate containing 1 μL DMSO solutions of compounds typically in the final concentration range 316 μM to 0.01 μM. Naproxen was used as reference compound. The mix was incubated at 37° C. for 16 hours. Plasma was harvested by centrifugation and stored at −70° C. until further analysis of PGE2 levels. For the calculations, the 0%-activity value was represented by blood treated with acetyl salicylic acid, LPS and the reference compound (1 mM Naproxen). The 100%-activity value was represented by blood treated with aspirin, LPS and DMSO. [Reference: Patrignani, P. et al, Journal of Pharmacology and Experimental Therapeutics, 1994, vol. 271, pp 1705-1712]. The PGE2 formed was quantified, after dilution in a weak potassium phosphate buffer (50 mM, pH 6.8) containing 0.2% BSA (w/v), by use of a commercial HTRF based kit (catalogue #62PG2PEC or #62P2APEC from Cisbio International). IC50 values were then determined using standard procedures.
On the technique in general: Time-resolved FRET reads energy transfer from a long-lived donor to a nearby acceptor.

Consider `NS(=O)(=O)c1ccccc1NS(=O)(=O)CCc1ccc(Br)cc1OCC1CCOCC1` [Example 1, 2-[({2-[4-Bromo-2-(tetrahydro-2H-pyran-4-ylmethoxy)phenyl]ethyl}sulfonyl)amino]benzenesulfonamide], for which the IC50 against human mPGES-1 came to 3.4 nM; in assay [1], 63.9 nM.

Turning to `NS(=O)(=O)c1ccccc1NS(=O)(=O)CCc1ccc(Cl)cc1OCC1CCOCC1` [Example 2, 2-[({2-[4-Chloro-2-(tetrahydro-2H-pyran-4-ylmethoxy)phenyl]ethyl}sulfonyl)amino]benzenesulfonamide], the IC50 at human mPGES-1 was found to be 3.5 nM; in assay [1], 24.9 nM.

Consider `NS(=O)(=O)c1ccccc1NS(=O)(=O)CCc1ccc(C(F)(F)F)cc1OCC1CCOCC1` [Example 3, 2-[({2-[2-(Tetrahydro-2H-pyran-4-ylmethoxy)-4-(trifluoromethyl)phenyl]ethyl}sulfonyl)amino]benzenesulfonamide], for which the IC50 came out at 4 nM at human mPGES-1 and 26.6 nM in assay [1].

`Cc1ccc(CCS(=O)(=O)Nc2ccccc2S(N)(=O)=O)c(OCC2CCOCC2)c1` [Example 4, 2-[({2-[4-methyl-2-(tetrahydro-2H-pyran-4-ylmethoxy)phenyl]ethyl}sulfonyl)amino]benzenesulfonamide]: the values for the IC50 (against human mPGES-1; in assay [1]) were 15 nM and 154 nM, respectively.

Consider `NS(=O)(=O)c1ccccc1NS(=O)(=O)CCc1ccc(F)cc1OCC1CCOCC1` [Example 5, 2-[({2-[4-Fluoro-2-(tetrahydro-2H-pyran-4-ylmethoxy)phenyl]ethyl}sulfonyl)amino]benzenesulfonamide], for which the IC50 against human mPGES-1 is 16 nM; in assay [1], 89.7 nM.

Regarding `NS(=O)(=O)c1ccccc1NS(=O)(=O)CCc1ccc(Cl)cc1OCC1CCC(F)(F)CC1` [Example 6, 2-{[(2-{4-Chloro-2-[(4,4-difluorocyclohexyl)methoxy]phenyl}ethyl)sulfonyl]amino}benzenesulfonamide], the IC50 is 2.7 nM against human mPGES-1 and 11.5 nM in assay [1].

Consider `Cc1ccc(CCS(=O)(=O)Nc2ccccc2S(N)(=O)=O)c(OCC2CCC(F)(F)CC2)c1` [Example 7, 2-{[(2-{2-[(4,4-Difluorocyclohexyl)methoxy]-4-methylphenyl}ethyl)sulfonyl]amino}benzenesulfonamide], for which the IC50 at human mPGES-1 worked out at 7.2 nM; in assay [1], 54.1 nM.

Turning to `NS(=O)(=O)c1ccccc1NS(=O)(=O)CCc1ccc(F)cc1OCC1CCC(F)(F)CC1` [Example 8, 2-{[(2-{2-[(4,4-Difluorocyclohexyl)methoxy]-4-fluorophenyl}ethyl)sulfonyl]amino}benzenesulfonamide], the figures for the IC50 (against human mPGES-1; in assay [1]) were 7.6 nM and 149 nM, respectively.

For `NS(=O)(=O)c1ccccc1NS(=O)(=O)CCc1ccc(C#Cc2ccccc2)cc1OCC1CCOCC1` [Example 9, 2-[({2-[4-(Phenylethynyl)-2-(tetrahydro-2H-pyran-4-ylmethoxy)phenyl]ethyl}sulfonyl)amino]benzenesulfonamide], the IC50 against human mPGES-1 came to 3.4 nM; in assay [1], 0.911 nM.

On to `NS(=O)(=O)c1ccccc1NS(=O)(=O)CCc1ccc(C#CC2CC2)cc1OCC1CCOCC1` [Example 10, 2-[({2-[4-(Cyclopropylethynyl)-2-(tetrahydro-2H-pyran-4-ylmethoxy)phenyl]ethyl}sulfonyl)amino]benzenesulfonamide], for which the IC50 on human mPGES-1 is less than 2.2 nM; in assay [1], 7.92 nM.

As for `NS(=O)(=O)c1ccccc1NS(=O)(=O)CCc1ccc(C#CC2CCCC2)cc1OCC1CCOCC1` [Example 11, 2-[({2-[4-(Cyclopentylethynyl)-2-(tetrahydro-2H-pyran-4-ylmethoxy)phenyl]ethyl}sulfonyl)amino]benzenesulfonamide], the values for the IC50 (against human mPGES-1; in assay [1]) were 2.1 nM and 0.987 nM, respectively.

On to `NS(=O)(=O)c1ccccc1NS(=O)(=O)CCc1ccc(C#CC2CCC2)cc1OCC1CCOCC1` [Example 12, 2-[({2-[4-(cyclobutylethynyl)-2-(tetrahydro-2H-pyran-4-ylmethoxy)phenyl]ethyl}sulfonyl)amino]benzenesulfonamide], for which the IC50 against human mPGES-1 was less than 2.3 nM; in assay [1], 1.84 nM.

Turning to `CC(C)C#Cc1ccc(CCS(=O)(=O)Nc2ccccc2S(N)(=O)=O)c(OCC2CCOCC2)c1` [Example 13, 2-[({2-[4-(3-methylbut-1-yn-1-yl)-2-(tetrahydro-2H-pyran-4-ylmethoxy)phenyl]ethyl}sulfonyl)amino]benzenesulfonamide], the IC50 against human mPGES-1 came out at 3.4 nM; in assay [1] it was 1.85 nM.

On to `Cc1ccc(C#Cc2ccc(CCS(=O)(=O)Nc3ccccc3S(N)(=O)=O)c(OCC3CCOCC3)c2)cc1` [Example 14, 2-{[(2-{4-[(4-Methylphenyl)ethynyl]-2-(tetrahydro-2H-pyran-4-ylmethoxy)phenyl}ethyl)sulfonyl]amino}benzenesulfonamide], for which the IC50 at human mPGES-1 was 2.1 nM; in assay [1] it was 0.987 nM.

In the case of `CC(C)(C)C#Cc1ccc(CCS(=O)(=O)Nc2ccccc2S(N)(=O)=O)c(OCC2CCOCC2)c1` [Example 15, 2-[({2-[4-(3,3-Dimethylbut-1-yn-1-yl)-2-(tetrahydro-2H-pyran-4-ylmethoxy)phenyl]ethyl}sulfonyl)amino]benzenesulfonamide], the IC50 was less than 2.5 nM against human mPGES-1 and 17.1 nM in assay [1].

As for `NS(=O)(=O)c1cc(CO)ccc1NS(=O)(=O)CCc1ccc(Cl)cc1OCC1CCOCC1` [Example 16, 2-[({2-[4-chloro-2-(tetrahydro-2H-pyran-4-ylmethoxy)phenyl]ethyl}sulfonyl)amino]-5-(hydroxymethyl)benzenesulfonamide], the results for the IC50 (at human mPGES-1; in assay [1]) were 5.6 nM and 29 nM, respectively.

As to `NS(=O)(=O)c1cc(CO)ccc1NS(=O)(=O)CCc1ccc(F)cc1OCC1CCOCC1` [Example 17, 2-[({2-[4-fluoro-2-(tetrahydro-2H-pyran-4-ylmethoxy)phenyl]ethyl}sulfonyl)amino]-5-(hydroxymethyl)benzenesulfonamide], the results for the IC50 (against human mPGES-1; in assay [1]) were 19.5 nM and 214 nM, respectively.

The record behind these values is patent US10081614B2, “Bis(sulfonamide) derivatives and their use as mPGES inhibitors” (Acturum Real Estate AB, priority 2014, dated 2018).
